The target of this assay is T1, C5AR1 (Homo sapiens, UniProt P21730).
T1 construct: host or cells: CHO-K1
T1 sequence (P21730 1-350): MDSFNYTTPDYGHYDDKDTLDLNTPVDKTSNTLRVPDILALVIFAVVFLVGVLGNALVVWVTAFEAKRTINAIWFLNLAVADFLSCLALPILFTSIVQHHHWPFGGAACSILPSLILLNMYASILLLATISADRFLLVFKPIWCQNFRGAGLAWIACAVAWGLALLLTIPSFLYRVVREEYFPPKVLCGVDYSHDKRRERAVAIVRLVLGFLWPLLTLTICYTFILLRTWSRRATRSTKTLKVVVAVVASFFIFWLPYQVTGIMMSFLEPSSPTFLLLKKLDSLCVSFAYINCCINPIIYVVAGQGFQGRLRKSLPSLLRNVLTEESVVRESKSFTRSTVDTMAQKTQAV
As to the kind of experiment: hC5a DISCO IC50 assay (PathHunter beta-arrestin, antagonist mode). Type of assay: cell-based. As to conditions: CHO-K1 C5AR1 beta-arrestin cell line; antagonist vs 1-10 nM C5a agonist; geometric mean values; read-out: C5aR IC50. The essentials: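 Antagonist added first, then 1-10 nM C5a agonist; cells incubated 1.5 h at 37 °C. Beta-arrestin signal developed with PathHunter detection reagent, 45 min at RT. IC50 in nmol/l from serial antagonist dilutions, reported as geometric mean of several measurements.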

Molecules are shown by their SMILES.

One may read the IC50 as the point on the concentration scale where inhibition reaches its midpoint.

Consider `COc1cccc2c1n(Cc1cccnc1C(F)(F)F)c(=O)n2[C@@H]1CCN(c2c(C)cccc2F)C1` [Example 195, 1-[(R)-1-(2-Fluoro-6-methyl-phenyl)-pyrrolidin-3-yl]-4-methoxy-3-(2-trifluoromethyl-pyridin-3-ylmethyl)-1,3-dihydro-benzoimidazol-2-one], for which the IC50 worked out at 20 nM. Take `COc1cccc2c1n(Cc1ccccc1C(F)(F)F)c(=O)n2[C@@H]1CCN(c2c(F)cccc2CN2CC(OC)C2)C1` [Example 143, 1-{(R)-1-[2-Fluoro-6-(3-methoxy-azetidin-1-ylmethyl)-phenyl]-pyrrolidin-3-yl}-4-methoxy-3-(2-trifluoromethyl-benzyl)-1,3-dihydro-benzoimidazol-2-one]: the IC50 was found to be 108 nM. Consider `COc1cccc2c1n(Cc1ccccc1C(F)(F)F)c(=O)n2C1CCN(c2c(C=O)c(C3CC3)nn2C)CC1` [Example 14, 3-Cyclopropyl-5-{4-[4-methoxy-2-oxo-3-(2-trifluoromethyl-benzyl)-2,3-dihydro-benzoimidazol-1-yl]-piperidin-1-yl}-1-methyl-1H-pyrazole-4-carbaldehyde], for which the half-maximal inhibitory concentration (IC50) amounted to 216 nM. In the case of `COc1cccc2c1n(Cc1ccccc1C(F)(F)F)c(=O)n2C1CCN(c2c(Cl)c(C3CC3)nn2C)CC1` [Example 24, 1-[1-(4-Chloro-5-cyclopropyl-2-methyl-2H-pyrazol-3-yl)-piperidin-4-yl]-4-methoxy-3-(2-trifluoromethyl-benzyl)-1,3-dihydro-benzoimidazol-2-one], the half-maximal inhibitory concentration (IC50) was determined as 330 nM.

As to `COc1cccc2c1n(Cc1ccccc1C(F)(F)F)c(=O)n2C1CCCN(C(=O)OC(C)(C)C)C1` (centres unmarked) [Example 214, 3-[4-Methoxy-2-oxo-3-(2-trifluoromethyl-benzyl)-2,3-dihydro-benzoimidazol-1-yl]-piperidine-1-carboxylic acid tert-butyl ester], the IC50 is 205 nM. As for `COc1cccc2c1n(Cc1ccccc1C(F)(F)F)c(=O)n2C1CCCN(c2c(C)cccc2C)C1` (centres unmarked) [Example 217, 1-[1-(2,6-Dimethyl-phenyl)-piperidin-3-yl]-4-methoxy-3-(2-trifluoromethyl-benzyl)-1,3-dihydro-benzoimidazol-2-one], the half-maximal inhibitory concentration (IC50) was 158 nM. Consider `COc1cccc2c1n(Cc1ccccc1C(F)(F)F)c(=O)n2[C@@H]1CCN(C(=O)OC2COC2)C1` [Example 72, (R)-3-[4-Methoxy-2-oxo-3-(2-trifluoromethyl-benzyl)-2,3-dihydro-benzoimidazol-1-yl]-pyrrolidine-1-carboxylic acid oxetan-3-yl ester], for which the IC50 worked out at 397 nM. For `COc1cccc2c1n(Cc1ncccc1C(F)(F)F)c(=O)n2C1CCN(c2c(F)cccc2F)CC1` [Example 76, 1-[1-(2,6-Difluoro-phenyl)-piperidin-4-yl]-4-methoxy-3-(3-trifluoromethyl-pyridin-2-ylmethyl)-1,3-dihydro-benzoimidazol-2-one] the value was 38 nM. Take `CCN(CCO)Cc1cccc(F)c1N1CC[C@@H](n2c(=O)n(Cc3ccccc3C(F)(F)F)c3c(OC)cccc32)C1` [Example 140, 1-[(R)-1-(2-{[Ethyl-(2-hydroxy-ethyl)-amino]-methyl}-6-fluoro-phenyl)-pyrrolidin-3-yl]-4-methoxy-3-(2-trifluoromethyl-benzyl)-1,3-dihydro-benzoimidazol-2-one]: the IC50 turned out to be 1030 nM. As to `COc1cccc2c1n(Cc1ccccc1C(F)(F)F)c(=O)n2C1CCN(C(=O)c2ccccc2)CC1` [Example 30, 1-(1-Benzoyl-piperidin-4-yl)-4-methoxy-3-(2-trifluoromethyl-benzyl)-1,3-dihydro-benzoimidazol-2-one], the IC50 is 1520 nM.

On to `COc1nccc2c1n(Cc1ccccc1C(F)(F)F)c(=O)n2[C@@H]1CCN(c2c(C)cccc2C)C1` [Example 41, 1-[(R)-1-(2,6-Dimethyl-phenyl)-pyrrolidin-3-yl]-4-methoxy-3-(2-trifluoromethyl-benzyl)-1,3-dihydro-imidazo[4,5-c]pyridin-2-one], for which the IC50 is 18 nM.

Turning to `COc1nccc(C)c1N1CCC(n2c(=O)n(Cc3ccccc3C(F)(F)F)c3c(OC)cccc32)CC1` [Example 234, 4-Methoxy-1-(2′-methoxy-4′-methyl-3,4,5,6-tetrahydro-2H-[1,3′]bipyridinyl-4-yl)-3-(2-trifluoromethyl-benzyl)-1,3-dihydro-benzoimidazol-2-one], the IC50 came to 17 nM. On to `COc1cccc2c1n(Cc1ccccc1C(F)(F)F)c(=O)n2[C@H]1CN(c2c(C)cccc2F)C[C@@H]1C` (relative stereo) [Example 198, 1-[(3R*,4S*)-1-(2-Fluoro-6-methyl-phenyl)-4-methyl-pyrrolidin-3-yl]-4-methoxy-3-(2-trifluoromethyl-benzyl)-1,3-dihydro-benzoimidazol-2-one], for which the IC50 was found to be 15 nM. Take `COc1cccc2c1n(Cc1ccncc1C(F)(F)F)c(=O)n2C1CCN(c2c(C)cccc2C)CC1` [Example 73, 1-[1-(2,6-Dimethyl-phenyl)-piperidin-4-yl]-4-methoxy-3-(3-trifluoromethyl-pyridin-4-ylmethyl)-1,3-dihydro-benzoimidazol-2-one]: the concentration for half-maximal inhibition (IC50) turned out to be 272 nM. For `Cc1cccc(F)c1N1CC[C@@H](n2c(=O)n(Cc3ccccc3C(F)(F)F)c3c(N4CCN(C)CC4)nccc32)C1` [Example 206, 1-[(R)-1-(2-Fluoro-6-methyl-phenyl)-pyrrolidin-3-yl]-4-(4-methyl-piperazin-1-yl)-3-(2-trifluoromethyl-benzyl)-1,3-dihydro-imidazo[4,5-c]pyridin-2-one] the value was 2300 nM. Regarding `CCOC(=O)C1CN(C(=O)OC(C)(C)C)CCC1n1c(=O)n(Cc2ccccc2C(F)(F)F)c2c(OC)cccc21` (centres unmarked) [Example 164, 4-[4-Methoxy-2-oxo-3-(2-trifluoromethyl-benzyl)-2,3-dihydro-benzoimidazol-1-yl]-piperidine-1,3-dicarboxylic acid 1-tert-butyl ester 3-ethyl ester], the IC50 worked out at 179 nM. For the molecule `COc1cccc2c1n(Cc1ccccc1OC1CC1)c(=O)n2C1CCN(c2c(C)cccc2F)CC1` [Example 209, 3-(2-Cyclopropoxy-benzyl)-1-[1-(2-fluoro-6-methyl-phenyl)-piperidin-4-yl]-4-methoxy-1,3-dihydro-benzoimidazol-2-one], the IC50 was determined as 34 nM. For `COCC(C)NCc1cccc(F)c1N1CC[C@@H](n2c(=O)n(Cc3ccccc3C(F)(F)F)c3c(OC)cccc32)C1` (stereo partly drawn) [Example 142, 1-((R)-1-{2-Fluoro-6-[(2-methoxy-1-methyl-ethylamino)-methyl]-phenyl}-pyrrolidin-3-yl)-4-methoxy-3-(2-trifluoromethyl-benzyl)-1,3-dihydro-benzoimidazol-2-one], the IC50 came out at 108 nM. `COc1cccc2c1n(Cc1cncnc1C(F)(F)F)c(=O)n2[C@@H]1CCN(c2c(F)cccc2C#N)C1` [Example 153, 3-Fluoro-2-{(R)-3-[4-methoxy-2-oxo-3-(4-trifluoromethyl-pyrimidin-5-ylmethyl)-2,3-dihydro-benzoimidazol-1-yl]-pyrrolidin-1-yl}-benzonitrile]: the half-maximal inhibitory concentration (IC50) was determined as 215 nM. For `COc1ccccc1Cn1c(=O)n([C@@H]2CCN(c3c(F)cccc3C#N)C2)c2ncnc(OC)c21` [Example 105, 3-Fluoro-2-{(R)-3-[6-methoxy-7-(2-methoxy-benzyl)-8-oxo-7,8-dihydro-purin-9-yl]-pyrrolidin-1-yl}-benzonitrile], the IC50 was found to be 4480 nM. As to `COc1cccc2c1n(Cc1cccnc1C(F)(F)F)c(=O)n2C1CCN(c2c(F)cccc2F)CC1` [Example 55, 1-[1-(2,6-Difluoro-phenyl)-piperidin-4-yl]-4-methoxy-3-(2-trifluoromethyl-pyridin-3-ylmethyl)-1,3-dihydro-benzoimidazol-2-one], the IC50 amounted to 178 nM. Next, `COc1cccc2c1n(Cc1ccccc1C(F)(F)F)c(=O)n2[C@@H]1CCN(c2c(F)cccc2CN(CCO)CCO)C1` [Example 141, 1-[(R)-1-(2-{[Bis-(2-hydroxy-ethyl)-amino]-methyl}-6-fluoro-phenyl)-pyrrolidin-3-yl]-4-methoxy-3-(2-trifluoromethyl-benzyl)-1,3-dihydro-benzoimidazol-2-one]: 2130 nM; `COc1ccnc2c1n(Cc1ccccc1C(F)(F)F)c(=O)n2[C@@H]1CCN(c2c(C)cccc2C)C1` [Example 45, 3-[(R)-1-(2,6-Dimethyl-phenyl)-pyrrolidin-3-yl]-7-methoxy-1-(2-trifluoromethyl-benzyl)-1,3-dihydro-imidazo[4,5-b]pyridin-2-one]: 16 nM. As to `COc1ccccc1Cn1c(=O)n([C@@H]2CCN(c3c(C)cccc3C)C2)c2ccnc(OC)c21` [Example 77, 1-[(R)-1-(2,6-Dimethyl-phenyl)-pyrrolidin-3-yl]-4-methoxy-3-(2-methoxy-benzyl)-1,3-dihydro-imidazo[4,5-c]pyridin-2-one], the half-maximal inhibitory concentration (IC50) came out at 89 nM. `COc1ccccc1Cn1c(=O)n([C@@H]2CCN(c3c(F)cccc3F)C2)c2cccc(OC)c21` [Example 68, 1-[(R)-1-(2,6-Difluoro-phenyl)-pyrrolidin-3-yl]-4-methoxy-3-(2-methoxy-benzyl)-1,3-dihydro-benzoimidazol-2-one]: the IC50 came out at 84 nM. In the case of `COc1cccc2c1n(Cc1ccccc1C(F)(F)F)c(=O)n2[C@@H]1CCN(c2c(Cl)cnnc2Cl)C1` [Example 158, 1-[(R)-1-(3,5-Dichloro-pyridazin-4-yl)-pyrrolidin-3-yl]-4-methoxy-3-(2-trifluoromethyl-benzyl)-1,3-dihydro-benzoimidazol-2-one], the half-maximal inhibitory concentration (IC50) came to 683 nM.

For the origin of these results see US11739070B2, “C5A receptor modulators” (IDORSIA PHARMACEUTICALS LTD, priority 2018, dated 2023).
